In patent US9932300B2, “N,N′-diarylurea compounds and N,N′-diarylthiourea compounds as inhibitors of translation initiation” (President and Fellows of Harvard College, priority 2009, dated 2018):
Several values for one entry are separate records, joined by “and”; a condition that tells them apart may be missing. Equal values may be shown once.

Tested on: eIF2-GTP-Met-tRNAi ternary complex
Assay: Ternary complex assay (dual luciferase, firefly/renilla ratio) in stable KLN-tTA/pBISA-DL(ATF-4) cells; HTS and hit confirmation
Type: cell-based, mouse
Set-up: Activity 10 uM / Activity 2.5 uM / Activity 5 uM: unit not given here
Conditions: confirmed hits of the screen (Table 5); for Activity 5 uM: compound at 5 uM; for Activity 10 uM: compound at 10 uM; for Activity 2.5 uM: compound at 2.5 uM
From the text: For assay development, a bi-directional plasmid was designed in which a common promoter/enhancer complex drives the transcription of firefly luciferase (F-luc) ORF fused to the 5′ untranslated region (UTR) of ATF-4, and of the renilla luciferase (R-luc) ORF fused to a 90-nucleotide 5′ UTR derived from the plasmid (FIG. 6A). Because the tetracycline-regulated transactivator ((tTA), required for driving transcription from this vector) is not normally expressed in the mammalian cells, stable KLN cancer cells were constructed that expressed tTA (KLN-tTA).
The KLN-tTA colonies that drove expression of reporter genes from pBISA-DL plasmid were selected by transient transfection and dual luciferase assay. One of these KLN-tTA cell lines was transfected with the pBISA-DL^(ATF-4) expression vector, stable colonies were selected by dual luciferase assay and expanded. To determine if reduced availability of the eIF2*GTP*Met-tRNAi ternary complex increased the translation of firefly luciferase and decreased translation of renilla luciferase, selected KLN-tTA/pBISA-DL^(AFT-4) colonies were treated with thapsigargin (TG) or tunicamycin (TU), two agents known to cause phosphorylation of eIF2α.
This assay was then adapted for high throughput screening in 96 and 384 well plates. This was done by evaluating the cell density, length of exposure to compounds, DMSO tolerance and optimum firefly and renilla substrate. We then challenged these cells with thapsigargin or DMSO. […] Cell-based assays usually have higher variation than homogeneous in vitro assays due to position effect in the plate, and other variables associated with handling of cells and the plates.
Screening was conducted in 384 well white opaque plates (Nalge Nunc), 100 μl volume RPMI+10% fetal bovine serum. Cells were plated at the sub-confluent density of 10,000 cells/well, and allowed to attach for a period of 16-18 hours at 37° C., 5% CO2. Compounds were added as 1 μl of a 1 mM DMSO stock solution for a final screening concentration of 10 μM, using low-volume tips for transfer (Molecular Bioproducts). Cells were then incubated in the presence of compound for an additional sixteen hours, again at 37° C., 5% CO2. Following incubation 70 μl of the culture medium was removed from each well to allow for reagent addition and plates were allowed to equilibrate to room temperature for thirty minutes. Firefly luciferase reporter activity was then read by the addition of thirty microliters of Dual Glo Luciferase reagent (Promega), followed by one hour incubation at room temperature to allow for adequate signal buildup. Luminescence counting was conducted on a Microbeta Trilux using a 1 second read time. Renilla luciferase reporter activity was measured following addition of 30 μl Stop and Glo Luciferase reagent (Promega) and incubation identical to the one carried out for the firefly luciferase one.
Compound scores were interpreted as firefly luciferase activity divided by renilla luciferase activity, normalized to the plate's DMSO control. […] All data analysis was conducted using the BioAssay HTS software package (CambridgeSoft).
102,709 compounds in the NCI Open Chemical Repository were then screened using this HTS assay. […] Initial hits were confirmed by repeating the same dual luciferase assay in 96 well plates. Briefly, 20,000 cells/well were plated in triplicate for each concentration (10, 5 and 2.5 μM) of the compounds.

| SMILES | Activity 5 uM | Activity 10 uM | Activity 2.5 uM |
| --- | --- | --- | --- |
| Cc1ccnc(NC(=O)Nc2cc(F)ccc2F)c1 [Compound 213710] | 4.183 | 5.091 |  |
| Cc1cc2c(C)c3cccc[n+]3cc2c2ccccc12.[O-][Cl+3]([O-])([O-])[O-] [Compound 93861] | 2.622 | 3.171 |  |
| COc1ccc(-c2cc3ccccc3[nH]2)cc1 [Compound 101082] | 4.772 | 5.896 |  |
| [Br][Ni][Br].c1ccc(CN2CCN(Cc3ccccc3)CCN(Cc3ccccc3)CCN(Cc3ccccc3)CC2)cc1 [Compound 236237] |  | 57.44 | 1.78 |
| COc1c(O)c2c(=O)cc3c4c5c(cc(=O)c6c(O)c(OC)c(CC(C)O)c(c(c1CC(C)O)c24)c65)OCO3 (centres unmarked) [Compound 234486] |  |  | 10 |
| Oc1ccccc1/C=N/NC(=S)Nc1ccc2cn[nH]c2c1 [Compound 76429] | 4.409 | 5.2405 |  |
| Cc1cc(C)nc(NC(=S)N/N=C/c2ccccn2)n1 [Compound 185066] | 44.91 | 20.339 |  |
| CCCCN(C)N=Nc1c(-c2ccccc2)n[nH]c1-c1ccccc1 [Compound 136889] | 3.9 | 16.7 |  |
| Cc1ccc2nc(-c3ccccc3)c(N=O)n2c1 [Compound 369061] | 5.137 | 6.3 |  |
| COc1ccc(/C=C(\C2=NC(=O)CS2)c2nc3ccccc3[nH]2)cc1 [Compound 652047] |  | 3.51 | 1.15 |
| CCN(CC)C(=S)[S-].CCN(CC)C(=S)[S-].[Cu+2] [Compound 1337] |  |  | 7.15 |
| Nc1nc(=S)c2c(nc[n]2[Hg][c]2ccc([N+](=O)[O-])cc2)[nH]1 [Compound 631945] |  | 5.72 | 0.76 |
| COc1cc(/C=C2\CCC(C)/C(=C\c3cc(OC)c(OC)c(OC)c3)C2=O)cc(OC)c1OC (centres unmarked) [Compound 690734] |  | 10.02 | 0.48 |
| Cl.Clc1ccc(C2NC(c3ccc(Cl)cc3)NC(c3ccc(Cl)cc3)N2)cc1 (centres unmarked) [Compound 135155] |  | 7.19 | 0.94 |
| COc1ccc(C2Oc3c(cccc3OC)C=C2[N+](=O)[O-])cc1 (centres unmarked) [Compound 667223] |  | 6.01 and 8.726 |  |
| O=C(/C=C/c1ccccc1)Nc1ccc(Cl)c(Cl)c1 [Compound 191395] | 3.609 | 7.0185 |  |
| Clc1nc2cc3c(cc2n2cccc12)oc1ccccc13 [Compound 347816] | 3.143 | 3.5245 |  |
| Clc1cc[c]([Sb]2([c]3ccc(Cl)cc3)([c]3ccc(Cl)cc3)[O]C(C(Cl)(Cl)Cl)[O]2)cc1 (centres unmarked) [Compound 316746] |  | 6.11 | 0.88 |
| CN(C)c1ccc(N=Nc2ccc3c4c(cccc24)-c2ccccc2-3)cc1 [Compound 299107] |  | 279.99 | 8.13 |
| Cc1c(Cl)ccc2c(C(O)CNCc3ccccc3)cc(-c3ccc(Cl)cc3)nc12 (centres unmarked) [Compound 14755] |  | 6.63 | 0.68 |
| CC(=O)Nc1ccc(C(O)/C(=N/N)c2nc3ccc(Cl)cc3[nH]c2=O)cc1 (centres unmarked) [Compound 647590] |  | 3.22 | 2.31 |
| O=C1C(Cl)=C(Nc2nccs2)C(=O)c2ccccc21 [Compound 337757] | 6.205 | 5.978 |  |
| O=C(Nc1ccc2ccccc2c1)c1ccccc1Cl [Compound 204548] |  | 3.99 | 2.82 |
| CC(=O)Nc1cccc(/C=C/C=C/c2ccc([N+](=O)[O-])cc2)c1 [Compound 161089] |  | 3.53 | 1.67 |
| CSc1ncnc2c(C3OC(COC(C)=O)C(OC(C)=O)C3OC(C)=O)[nH]nc12 (centres unmarked) [Compound 360648] |  | 3.85 | 1.88 |

| SMILES | Activity 5 uM | Activity 10 uM | Activity 2.5 uM |
| --- | --- | --- | --- |
| CCCCCCCC[N+](C)(CCCCCCCC)CCCCCCCC.[Cl-] [Compound 61369] | 3 | 4.4 |  |
| N#C/C(=C/C=C/c1ccccc1)c1ccccc1 [Compound 338119] | 3.435 | 5.6885 |  |
| CN(CCC(=O)/C(=C\c1ccc(Cl)cc1)c1ccccc1)Cc1ccccc1.Cl [Compound 89160] |  |  | 9.22 |
| CN(C)c1ccc(C(=N)Cc2ccc3ccccc3n2)cc1 [Compound 240575] | 6.23 | 7.0215 |  |
| Nc1ccccc1Nc1c([N+](=O)[O-])cc(C(F)(F)F)cc1[N+](=O)[O-] [Compound 379578] |  | 27.15 | 0.61 |
| CC(=O)OCC(OC(C)=O)C(OC(C)=O)C(/C=C/N=[N+]([O-])c1ccccc1)OC(C)=O (centres unmarked) [Compound 102003] |  | 9.46 | 0.42 |
| N#Cc1c(N)nc([Se]CC(=O)c2ccc(Cl)cc2)c(C#N)c1-c1ccco1 [Compound 666131] |  | 8.72 | 4.12 |
| Cc1cc(OC(=O)Nc2ccc(Cl)c([N+](=O)[O-])c2)c(Cl)cc1Br [Compound 270151] |  | 3.16 | 1.24 |
| Cc1ccc(C(CN(C)C)C(=O)c2ccccc2)cc1C.Cl (centres unmarked) [Compound 36684] |  | 4.2 | 0.76 |
| CCc1ccc(N=Nc2ccc(N(C)C)cc2)cc1 [Compound 106343] | 2.6 | 4.1 |  |
| Cc1ccc(NC(=O)c2ccc(Cl)cc2Cl)cc1 [Compound 405522] |  | 3.69 | 2.47 |
| CCC[CH2][Sn]1([CH2]CCC)[O]CC2(CCCCC2)C[O]1 [Compound 194646] |  | 6.24 | 8.08 |
| c1ccc(N/N=C(/CC/C(=N\Nc2ccccc2)c2ccccc2)c2ccccc2)cc1 [Compound 146216] |  | 5.04 | 2.73 |
| CN(C)c1ccc(/C=C/c2ccc3ccccc3[n+]2[O-])cc1 [Compound 268776] | 5.767 | 5.5035 |  |
| CC(=O)Nc1cc(OC(C)=O)c2ccccc2c1OC(C)=O [Compound 45171] |  |  | 3.08 |
| F[P-](F)(F)(F)(F)F.[Cl][Co+].c1ccc(P(CCP(CCP(c2ccccc2)c2ccccc2)CCP(c2ccccc2)c2ccccc2)c2ccccc2)cc1 [Compound 634838] |  | 30.9 | 13.01 |
| [C-]#[O+].[C-]#[O+].[C-]#[O+].[C-]#[O+].[C-]#[O+].[CH3][Sn]([Cl])[c]1ccccc1.[Mn] [Compound 319699] |  | 3.62 | 0.29 |
| CCCCCCCCCCCCCCCC[N+](C)(C)Cc1ccccc1.[Br-] [Compound 263517] |  | 8.78 | 1.39 |
| c1ccc(P(CC[As](c2ccccc2)c2ccccc2)CC[As](c2ccccc2)c2ccccc2)cc1 [Compound 635022] |  | 4.8 | 0.96 |
| CN1/C(=C/C=C/C=C/C=C2C(=O)c3ccccc3C2=O)C(C)(C)c2ccccc21 [Compound 682512] |  | 10.02 | 0.57 |
| CCOC(=O)/C(=C\c1ccc(N(C)C)cc1)[Se]c1ccccc1 [Compound 638113] |  | 3.17 | 1.87 |
| NP(Br)(c1ccccc1)(c1ccccc1)c1ccccc1 [Compound 99047] | 14.82 | 13.186 |  |
| C(=N\Nc1ccc2ccccc2n1)/c1ccccn1.CC(=O)[O-].CC(=O)[O-].[Zn+2] [Compound 609211] |  | 18.74 | 5.68 |
| CC(C)CCCC(C)C1CCC2C3CC=C4CC([n+]5cccc6ccccc65)CCC4(C)C3CCC12C.Cc1ccc(S(=O)(=O)[O-])cc1 (centres unmarked) [Compound 32999] |  | 6.87 | 2.41 |
| CC(=O)[O-].[O-]c1c(Cl)cc(Cl)cc1/C=N/Nc1ccccn1.[Zn+2] [Compound 625863] |  | 3.72 | 3.75 |
